Where two headings read alike, the source gives them in different places.
Legend:
[1] = system: PSN1 cells; assay: cells; conditions: Homo sapiens, PSN1, 72 h, read-out: LC50
Method in brief: (§1)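 Human cancer lines grown in DMEM plus 10% FBS at 37° C. were plated at 5000 cells/well and left 18 hours before dosing. Test compounds (10 to 0.003 μg/mL, triplicates) acted for 72 hours, after which glutaraldehyde-fixed cells were stained with sulforhodamine B.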

[2] = system: PC-3 tumors; conditions: 12-R 0.05 mg/kg
Source text: In this model, instead of male, female animals were used because PC-3 growth is not hormone dependant.

[3] = system: H82 tumors; assay: In vivo xenograft, human lung (SCLC) H82; conditions: iv Days 0, 7, 14, 12-R 0.05 mg/kg, Compound D 0.5 mg/kg
Procedure: (§2) Female athymic nu/nu mice (Harlan Laboratories Models, S. L. Barcelona, Spain or Envigo, Spain) were utilized for all experiments. Animal were housed in individually ventilated cages Sealsafe® Plus, Techniplast S.P.A.), up to ten per cage on a 12-hour light-dark cycle at 21-23° C. and 40-60% humidity. Mice were allowed free access to irradiated standard rodent diet (Tecklad 2914C) and sterilized water. Animals were acclimated for at least 5 days prior to tumor implantation with a tumor cell suspension.
H82 cells were grown as a suspension and maintained by addition of fresh medium, as the cell density increases, every 2 to 3 days. Every week, culture was reestablished by centrifugation of the suspension with subsequent resuspension in fresh medium at a concentration of 1×10^5 cell/ml. Animals were subcutaneously implanted (on the right flank using 26 G needle and a 1 cc syringe) at 4-6 weeks of age with 5×10^6 H82 cells, suspended in 0.05 mL of a solution consisting of 50% Matrigel® (Corning Incorporated Life Sciences) and 50% medium without serum or antibiotics.
(§3) Treatment tolerability was assessed by monitoring body weight evolution, clinical signs of systemic toxicity, as well as evidences of local damage in the injection site.
(§4) In xenograft studies with other cell lines: • Tumor volume was calculated using the equation (a·b^2)/2, where a: length (longest diameter) and b: width (shortest diameter) were measured in mm by using digital caliper (Fowler Sylvac, S235PAT).
(§5) Treatments producing >20% lethality and/or 20% net body weight loss were considered toxic.
(§6) Tables and figures summarize the data obtained from complete experimental groups, i.e. those groups keeping the initial number of animals, n=8-10.

[4] = system: H526 tumors; assay: In vivo xenograft, human lung (SCLC) H526; conditions: iv Days 0, 7, 14, 12-R 0.05 mg/kg, Compound D 0.5 mg/kg
Procedure: as §2
H526 cells were grown as a suspension and maintained by addition of fresh medium, as the cell density increases, every 2 to 3 days. Every week, culture was reestablished by centrifugation of the suspension with subsequent resuspension in fresh medium at a concentration of 1×10^5 cell/mL. Each animal was subcutaneously implanted (on the right flank using 26 G needle and a 1 cc syringe) at 4-6 weeks of age with 5×10^6 H526 cells suspended in 0.05 mL of a solution consisting of 50% Matrigel® (Corning Incorporated Life Sciences) and 50% medium without serum or antibiotics.
as §3, §5

[5] = system: A549 cells; assay: cells; conditions: Homo sapiens, A549, 72 h, read-out: LC50
Method in brief: as §1

[6] = system: HT29 cells; assay: cells; conditions: Homo sapiens, HT-29, 72 h, read-out: LC50
Method in brief: as §1

[7] = system: DU-145 tumors
Procedure: as §2
Culture cells were passaged every 3 to 5 days upon reaching confluence Each male athymic mice was subcutaneously implanted (on the right flank using a 26 G needle and a 1 cc syringe) at 4-6 weeks of age with 5×10^6 DU-145 cells suspended in 0.05 mL of a solution consisting of 50% Matrigel® Matrix (Corning Incorporated Life Sciences) and 50% medium without serum or antibiotics.
as §3, §4, §5, §6

[8] = Day 0, iv Days 0, 7 and 14, 12-S […]
[9] = Day 2, iv Days 0, 7 and 14, 12-S […]
[10] = Day 4, iv Days 0, 7 and 14, 12-S […]
[11] = Day 7, iv Days 0, 7 and 14, 12-S […]
[12] = Day 11, iv Days 0, 7 and 14, 12-S […]
[13] = Day 14, iv Days 0, 7 and 14, 12-S […]
[14] = Day 16, iv Days 0, 7 and 14, 12-S […]
[15] = Day 18, iv Days 0, 7 and 14, 12-S […]
[16] = Day 21, iv Days 0, 7 and 14, 12-S […]
[17] = Day 23, iv Days 0, 7 and 14, 12-S […]
[18] = Day 25, iv Days 0, 7 and 14, 12-S […]
[19] = Day 29, iv Days 0, 7 and 14, 12-S […]
[20] = Day 32, iv Days 0, 7 and 14, 12-S […]
[21] = Day 35, iv Days 0, 7 and 14, 12-S […]
[22] = Day 37, iv Days 0, 7 and 14, 12-S […]
[23] = Day 39, iv Days 0, 7 and 14, 12-S […]
[24] = Day 42, iv Days 0, 7 and 14, 12-S […]
[25] = Day 44, iv Days 0, 7 and 14, 12-S […]
[26] = Day 46, iv Days 0, 7 and 14, 12-S […]
[27] = Day 49, iv Days 0, 7 and 14, 12-S […]
[28] = Day 51, iv Days 0, 7 and 14, 12-S […]
[29] = Day 56, iv Days 0, 7 and 14, 12-S […]

SMILES | Median Tumor Volume [2, 8] | Median Tumor Volume [2, 9] | Median Tumor Volume [2, 10] | Median Tumor Volume [2, 11] | Median Tumor Volume [2, 12] | Median Tumor Volume [2, 13] | Median Tumor Volume [2, 14] | Median Tumor Volume [2, 15] | Median Tumor Volume [2, 16] | Median Tumor Volume [2, 17] | Median Tumor Volume [2, 18] | Median Tumor Volume [2, 19] | Median Tumor Volume [2, 20] | Median Tumor Volume [2, 21] | Median Tumor Volume [2, 22] | Median Tumor Volume [2, 23] | Median Tumor Volume [2, 24] | Median Tumor Volume [2, 25] | Median Tumor Volume [2, 26] | Median Tumor Volume [2, 27] | also measured
COc1c(C)cc2c(c1O)[C@@H]1[C@@H]3[C@@H]4SC[C@]5(N[C@@H](CN)Cc6c5[nH]c5ccccc65)C(=O)OC[C@@H](c5c6c(c(C)c(OC(C)=O)c54)OCO6)N3[C@@H](O)[C@H](C2)N1C [Compound 12-R] | 129.0 mm^3 | 136.2 mm^3 | 144.2 mm^3 | 172.2 mm^3 | 183.6 mm^3 | 205.2 mm^3 | 256.0 mm^3 | 325.7 mm^3 | 322.2 mm^3 | 407.8 mm^3 | 419.9 mm^3 | 459.1 mm^3 | 512.1 mm^3 | 579.2 mm^3 | 613.8 mm^3 | 764.1 mm^3 | 785.0 mm^3 | 845.5 mm^3 | 748.0 mm^3 | 808.7 mm^3 | CC50 [1]: > 128 nM; Median Tumor Volume [2, 28]: 855.8 mm^3; Median Tumor Volume [2, 29]: 1125.2 mm^3; Median Tumor Volume ([3]; Table 33, Day 0.0): 170.50 mm^3; Median Tumor Volume ([3]; Table 33, Day 2.0): 381.40 mm^3; Median Tumor Volume ([3]; Table 33, Day 5.0): 793.20 mm^3; Median Tumor Volume ([3]; Table 33, Day 7.0): 1187.20 mm^3; Median Tumor Volume ([3]; Table 33, Day 9.0): 1699.30 mm^3; Median Tumor Volume ([3]; Table 33, Day 12.0): 2125.60 mm^3; Median Tumor Volume ([4]; Table 32, Day 0.0): 214.20 mm^3; Median Tumor Volume ([4]; Table 32, Day 2.0): 404.50 mm^3; Median Tumor Volume ([4]; Table 32, Day 4.0): 680.50 mm^3; Median Tumor Volume ([4]; Table 32, Day 7.0): 995.20 mm^3; Median Tumor Volume ([4]; Table 32, Day 9.0): 1290.50 mm^3; Median Tumor Volume ([4]; Table 32, Day 11.0): 1568.00 mm^3; Median Tumor Volume ([4]; Table 32, Day 14.0): 2025.00 mm^3
COc1c(C)cc2c(c1O)[C@@H]1[C@@H]3[C@@H]4SC[C@]5(N[C@H](CN)Cc6c5[nH]c5ccccc65)C(=O)OC[C@@H](c5c6c(c(C)c(OC(C)=O)c54)OCO6)N3[C@@H](O)[C@H](C2)N1C [Compound 12-S] | 128.0 mm^3 | 141.5 mm^3 | 143.7 mm^3 | 183.9 mm^3 | 208.1 mm^3 | 270.7 mm^3 | 286.3 mm^3 | 336.1 mm^3 | 357.1 mm^3 | 400.8 mm^3 | 443.6 mm^3 | 523.4 mm^3 | 652.6 mm^3 | 689.7 mm^3 | 692.2 mm^3 | 726.9 mm^3 | 823.7 mm^3 | 864.2 mm^3 | 1182.8 mm^3 | 1219.2 mm^3 | CC50 [5]: > 128 nM; CC50 [6]: > 128 nM; Median Tumor Volume [2, 28]: 1331.9 mm^3; Median Tumor Volume [2, 29]: 1335.2 mm^3
COc1c(C)cc2c(c1O)[C@@H]1[C@@H]3[C@@H]4SC[C@]5(N[C@H](CO)Cc6c5oc5ccccc65)C(=O)OC[C@@H](c5c6c(c(C)c(OC(C)=O)c54)OCO6)N3[C@@H](O)[C@H](C2)N1C [Compound 39-S] | – | – | – | – | – | – | – | – | – | – | – | – | – | – | – | – | – | – | – | – | CC50 [6]: > 127 nM; Median Tumor Volume ([7]; Day 0, 39-S 1.00 mg/Kg iv Days 0, 7 and 14): 179.9 mm^3; Median Tumor Volume ([7]; Day 2, 39-S 1.00 mg/Kg iv Days 0, 7 and 14): 199.9 mm^3; Median Tumor Volume ([7]; Day 4, 39-S 1.00 mg/Kg iv Days 0, 7 and 14): 222.2 mm^3; Median Tumor Volume ([7]; Day 7, 39-S 1.00 mg/Kg iv Days 0, 7 and 14): 340.5 mm^3; Median Tumor Volume ([7]; Day 9, 39-S 1.00 mg/Kg iv Days 0, 7 and 14): 354.1 mm^3; Median Tumor Volume ([7]; Day 11, 39-S 1.00 mg/Kg iv Days 0, 7 and 14): 349.7 mm^3; Median Tumor Volume ([7]; Day 14, 39-S 1.00 mg/Kg iv Days 0, 7 and 14): 429.1 mm^3; Median Tumor Volume ([7]; Day 16, 39-S 1.00 mg/Kg iv Days 0, 7 and 14): 454.8 mm^3; Median Tumor Volume ([7]; Day 18, 39-S 1.00 mg/Kg iv Days 0, 7 and 14): 449.7 mm^3; Median Tumor Volume ([7]; Day 21, 39-S 1.00 mg/Kg iv Days 0, 7 and 14): 517.5 mm^3; Median Tumor Volume ([7]; Day 23, 39-S 1.00 mg/Kg iv Days 0, 7 and 14): 568.5 mm^3; Median Tumor Volume ([7]; Day 25, 39-S 1.00 mg/Kg iv Days 0, 7 and 14): 629.4 mm^3; Median Tumor Volume ([7]; Day 28, 39-S 1.00 mg/Kg iv Days 0, 7 and 14): 775.7 mm^3

— patent US10538535B2, “Antitumoral compounds” (priority 2017, dated 2020)
